Drawing on patent US9815839B2, “N-(1-(substituted-phenyl)ethyl)-9H-purin-6-amines as PI3K inhibitors” (Incyte Corporation, priority 2010, dated 2017), this text covers IC50 for 26 compounds.

In the assay the target is T1, PI3Kδ (p110δ/p85α) (Homo sapiens, UniProt O00329).
T1 construct: purchased Millipore (Bedford, Mass.)
The assay is described as follows: PI3Kδ scintillation proximity assay. The class given is biochemical. The note with it: 20 μM ATP, 4 nM PI3Kδ. The text has this:
Example A: PI3Kδ Scintillation Proximity Assay
Materials: [γ-^33P]ATP (10 mCi/mL) was purchased from Perkin-Elmer (Waltham, Mass.). Lipid kinase substrate, D-myo-Phosphatidylinositol 4,5-bisphosphate (PtdIns(4,5)P2)D (+)-sn-1,2-di-O-octanoylglyceryl, 3-O-phospho linked (PIP2), CAS 204858-53-7, was purchased from Echelon Biosciences (Salt Lake City, Utah). PI3Kδ (p110δ/p85α) was purchased from Millipore (Bedford, Mass.). ATP, MgCl2, DTT, EDTA, MOPS and CHAPS were purchased from Sigma-Aldrich (St. Louis, Mo.). Wheat Germ Agglutinin (WGA) YSi SPA Scintillation Beads was purchased from GE healthcare life sciences (Piscataway, N.J.).
The kinase reaction was conducted in polystyrene 384-well matrix white plate from Thermo Fisher Scientific in a final volume of 25 μL. Inhibitors were first diluted serially in DMSO and added to the plate wells before the addition of other reaction components. The final concentration of DMSO in the assay was 0.5%. The PI3K assays were carried out at room temperature in 20 mM MOPS, pH 6.7, 10 mM MgCl2, 5 mM DTT and CHAPS 0.03%. Reactions were initiated by the addition of ATP, the final reaction mixture consisted of 20 μM PIP2,20 μM ATP, 0.2 μCi [γ-^33P] ATP, 4 nM PI3Kδ. Reactions were incubated for 210 minutes and terminated by the addition of 40 μL SPA beads suspended in quench buffer: 150 mM potassium phosphate pH 8.0, 20% glycerol. 25 mM EDTA, 400 µM ATP. The final concentration of SPA beads is 1.0 mg/mL. After the plate sealing, plates were shaken overnight at room temperature and centrifuged at 1800 rpm for 10 minutes, the radioactivity of the product was determined by scintillation counting on Topcount (Perkin-Elmer). IC50 determination was performed by fitting the curve of percent control activity versus the log of the inhibitor concentration using the GraphPad Prism 3.0 software.
(In general: In a scintillation proximity assay essentially only radioactivity close to the scintillant gives light.)

T1 sequence (O00329 whole entry, species assumed): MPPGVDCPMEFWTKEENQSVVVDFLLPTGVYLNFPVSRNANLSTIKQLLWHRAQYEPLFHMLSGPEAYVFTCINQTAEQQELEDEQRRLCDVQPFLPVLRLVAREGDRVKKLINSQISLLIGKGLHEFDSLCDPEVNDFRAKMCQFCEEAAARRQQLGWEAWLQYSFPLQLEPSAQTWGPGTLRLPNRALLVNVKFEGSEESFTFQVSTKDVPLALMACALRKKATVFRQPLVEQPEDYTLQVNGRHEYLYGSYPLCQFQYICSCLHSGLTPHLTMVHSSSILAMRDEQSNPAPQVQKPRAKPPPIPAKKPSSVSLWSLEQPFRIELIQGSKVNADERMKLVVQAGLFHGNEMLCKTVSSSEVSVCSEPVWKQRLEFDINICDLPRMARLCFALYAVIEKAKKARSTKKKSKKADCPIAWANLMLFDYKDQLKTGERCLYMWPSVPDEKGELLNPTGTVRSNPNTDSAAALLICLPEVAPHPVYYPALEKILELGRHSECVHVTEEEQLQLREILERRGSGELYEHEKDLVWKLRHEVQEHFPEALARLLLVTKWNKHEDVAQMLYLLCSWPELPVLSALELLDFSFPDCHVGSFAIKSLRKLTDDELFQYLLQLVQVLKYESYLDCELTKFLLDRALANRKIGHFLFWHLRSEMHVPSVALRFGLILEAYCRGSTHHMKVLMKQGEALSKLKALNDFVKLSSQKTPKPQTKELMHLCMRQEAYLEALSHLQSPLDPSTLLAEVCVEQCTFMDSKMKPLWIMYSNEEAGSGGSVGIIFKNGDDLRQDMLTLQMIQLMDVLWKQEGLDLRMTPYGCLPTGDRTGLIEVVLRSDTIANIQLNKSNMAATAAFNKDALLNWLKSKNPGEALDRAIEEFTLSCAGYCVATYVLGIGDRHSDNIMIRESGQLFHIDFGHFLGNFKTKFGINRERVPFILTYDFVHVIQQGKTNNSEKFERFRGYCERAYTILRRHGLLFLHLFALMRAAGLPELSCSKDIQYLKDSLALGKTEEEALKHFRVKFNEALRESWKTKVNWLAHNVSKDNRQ
T1 sequence (P27986 whole entry partner, species assumed): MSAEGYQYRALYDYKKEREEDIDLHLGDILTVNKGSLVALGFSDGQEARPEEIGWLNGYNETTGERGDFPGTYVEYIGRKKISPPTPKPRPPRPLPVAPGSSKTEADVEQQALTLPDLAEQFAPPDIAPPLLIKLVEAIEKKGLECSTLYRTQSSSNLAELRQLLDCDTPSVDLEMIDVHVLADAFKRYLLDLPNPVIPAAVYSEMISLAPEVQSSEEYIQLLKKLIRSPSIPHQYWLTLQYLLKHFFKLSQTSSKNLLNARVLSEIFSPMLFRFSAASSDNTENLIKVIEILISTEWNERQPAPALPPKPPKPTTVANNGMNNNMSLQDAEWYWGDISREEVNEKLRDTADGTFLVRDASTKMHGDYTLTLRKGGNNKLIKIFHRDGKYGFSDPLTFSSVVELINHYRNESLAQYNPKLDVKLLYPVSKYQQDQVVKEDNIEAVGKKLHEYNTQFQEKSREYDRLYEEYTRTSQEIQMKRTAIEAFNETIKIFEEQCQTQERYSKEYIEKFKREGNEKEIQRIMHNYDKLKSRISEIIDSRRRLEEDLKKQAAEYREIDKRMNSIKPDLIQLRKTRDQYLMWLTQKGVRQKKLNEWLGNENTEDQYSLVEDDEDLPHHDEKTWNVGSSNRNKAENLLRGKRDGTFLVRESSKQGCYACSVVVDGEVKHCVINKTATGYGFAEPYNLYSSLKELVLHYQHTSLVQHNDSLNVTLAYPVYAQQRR

With “1-{3′-chloro-3-fluoro-6′-methoxy-2′-methyl-5′-[1-(9H-purin-6-ylamino)ethyl]biphenyl-4-yl]carbonyl)piperidin-4-ol [Example 69]”, the IC50 (commonly the midpoint of a concentration-inhibition curve) was under 0.05 µM.

As to `COc1c(C(C)Nc2ncnc3[nH]cnc23)cc(Cl)c(C)c1-c1cnn(C2(CC#N)CC(C#N)C2)c1` (single isomer, unassigned) [Example 54, 3-(4-{3-chloro-6-methoxy-2-methyl-5-[1-(9H-purin-6-ylamino)ethyl]phenyl}-1H-pyrazol-1-yl)-3-(cyanomethyl)cyclobutanecarbonitrile], the IC50 was under 0.05 µM.

Compound `COc1cncc(-c2c(C)c(Cl)cc(C(C)Nc3ncnc4[nH]cnc34)c2OC)c1` (single isomer, unassigned) [Example 113, N-{1-[5-Chloro-2-methoxy-3-(5-methoxypyridin-3-yl)-4-methylphenyl]ethyl}-9H-purin-6-amine] yielded an IC50 of under 0.05 µM.

With `COc1c(C(C)Nc2ncnc3[nH]cnc23)cc(Cl)c(C)c1C1CNC(=O)C1` (single isomer, unassigned) [Example 192, 4-{3-chloro-6-methoxy-2-methyl-5-[1-(9H-purin-6-ylamino)ethyl]phenyl}pyrrolidin-2-one], the IC50 is under 0.05 µM.

For `COc1c(C(C)Nc2ncnc3[nH]cnc23)cc(Cl)c(C)c1C1CC(=O)N(C)C1` (single isomer, unassigned) [Example 193, 4-{3-chloro-6-methoxy-2-methyl-5-[1-(9H-purin-6-ylamino)ethyl]phenyl}-1-methylpyrrolidin-2-one], the IC50 was under 0.05 µM.

As to `CCOc1c(C(C)Nc2ncnc3[nH]cnc23)cc(Cl)c(C#N)c1C1CN(C(C)C)C1` (single isomer, unassigned) [Example 214, 6-Chloro-3-ethoxy-2-(1-isopropylazetidin-3-yl)-4-[1-(9H-purin-6-ylamino)ethyl]benzonitrile bis(trifluoroacetate)], the concentration for half-maximal inhibition (IC50) is under 0.05 µM.

Consider `CC(Nc1ncnc2[nH]cnc12)c1cc(Cl)c(CC#N)c(C#N)c1-c1cccc(F)c1` (centres unmarked) [Example 4, 4-Chloro-3-(cyanomethyl)-3′-fluoro-6-[1-(9H-purin-6-ylamino)ethyl]biphenyl-2-carbonitrile], for which the IC50 is 0.5 to 1 µM.

Take `COc1c(C(C)Nc2ncnc3[nH]cnc23)cc(Cl)c(C)c1-c1cncc(C)c1` (centres unmarked) [Example 55, N-{1-[5-chloro-2-methoxy-4-methyl-3-(5-methylpyridin-3-yl)phenyl]ethyl}-9H-purin-6-amine]: the IC50 is under 0.05 µM.

As to `COc1c(C(C)Nc2ncnc3[nH]cnc23)cc(Cl)c(C)c1-c1ccc(N)nc1` (centres unmarked) [Example 57, N-{1-[3-(6-aminopyridin-3-yl)-5-chloro-2-methoxy-4-methylphenyl]ethyl}-9H-purin-6-amine], the IC50 was under 0.05 µM.

Regarding `COc1c(C(C)Nc2ncnc3[nH]cnc23)cc(Cl)c(C)c1-c1ccc(C#N)nc1` (centres unmarked) [Example 58, 5-{3-chloro-6-methoxy-2-methyl-5-[1-(9H-purin-6-ylamino)ethyl]phenyl}pyridine-2-carbonitrile], the half-maximal inhibitory concentration (IC50) was 0.05 to 0.1 µM.

In turn, `COc1c(C(C)Nc2ncnc3[nH]cnc23)cc(Cl)c(C)c1-c1ccc(OC(C)C)nc1` (centres unmarked) [Example 59, N-{1-[5-chloro-3-(6-isopropoxypyridin-3-yl)-2-methoxy-4-methylphenyl]ethyl}-9H-purin-6-amine] had an IC50 of 0.1 to 0.25 µM.

The compound `COc1c(C(C)Nc2ncnc3[nH]cnc23)cc(Cl)c(C)c1-c1ccc(F)c(C(N)=O)c1` (centres unmarked) [Example 61, 3′-Chloro-4-fluoro-6′-methoxy-2′-methyl-5′-[1-(9H-purin-6-ylamino)ethyl]biphenyl-3-carboxamide] came in with an IC50 of under 0.05 µM.

Turning to `COc1c(C(C)Nc2ncnc3[nH]cnc23)cc(Cl)c(C)c1-c1ccc(C(N)=O)c(F)c1` (centres unmarked) [Example 62, 3′-Chloro-3-fluoro-6′-methoxy-2′-methyl-5′-[1-(9H-purin-6-ylamino)ethyl]biphenyl-4-carboxamide], the 50% inhibitory concentration (IC50) was under 0.05 µM.

`COc1c(C(C)Nc2ncnc3[nH]cnc23)cc(Cl)c(C)c1-c1ccc(C(=O)N2CC(C#N)C2)c(F)c1` (centres unmarked) [Example 63, 1-({3′-Chloro-3-fluoro-6′-methoxy-2′-methyl-5′-[1-(9H-purin-6-ylamino)ethyl]biphenyl-4-yl}carbonyl)azetidine-3-carbonitrile] gave a half-maximal inhibitory concentration (IC50) of under 0.05 µM.

On to `CCNC(=O)c1ccc(-c2c(C)c(Cl)cc(C(C)Nc3ncnc4[nH]cnc34)c2OC)cc1F` (centres unmarked) [Example 64, 3′-chloro-N-ethyl-3-fluoro-6′-methoxy-2′-methyl-5′-[1-(9H-purin-6-ylamino)ethyl]biphenyl-4-carboxamid], for which the IC50 is under 0.05 µM.

The compound `COc1c(C(C)Nc2ncnc3[nH]cnc23)cc(Cl)c(C)c1-c1ccc(C(=O)N(C)C)c(F)c1` (centres unmarked) [Example 65, 3′-chloro-3-fluoro-6′-methoxy-N,N,2′-trimethyl-5′-[1-(9H-purin-6-ylamino)ethyl]biphenyl-4-carboxamide] showed an IC50 of under 0.05 µM.

`COc1c(C(C)Nc2ncnc3[nH]cnc23)cc(Cl)c(C)c1-c1ccc(C(=O)N2CCCC2)c(F)c1` (centres unmarked) [Example 66, N-{1-[5-chloro-3′-fluoro-2-methoxy-6-methyl-4′-(pyrrolidin-1-ylcarbonyl)biphenyl-3-yl]ethyl}-9H-purin-6-amine] yielded an IC50 of under 0.05 µM.

Turning to `COc1c(C(C)Nc2ncnc3[nH]cnc23)cc(Cl)c(C)c1-c1cc(F)cc(Cl)c1` (centres unmarked) [Example 85, N-[1-(3′,5-dichloro-5′-fluoro-2-methoxy-6-methylbiphenyl-3-yl)ethyl]-9H-purin-6-amine], the half-inhibitory concentration (IC50) is 0.25 to 0.5 µM.

Regarding `COc1c(C(C)Nc2ncnc3[nH]cnc23)cc(Cl)c(C)c1-c1ccc(OC(F)(F)F)cc1` (centres unmarked) [Example 90, N-{1-[5-chloro-2-methoxy-6-methyl-4′-(trifluoromethoxy)biphenyl-3-yl]ethyl}-9H-purin-6-amine], the IC50 fell in the range of 0.25 to 0.5 µM.

`COc1c(C(C)Nc2ncnc3[nH]cnc23)cc(Cl)c(C)c1-c1ccc(Cl)cc1` (centres unmarked) [Example 99, N-[1-(4′,5-dichloro-2-methoxy-6-methylbiphenyl-3-yl)ethyl]-9H-purin-6-amine] yielded an IC50 of 0.25 to 0.5 µM.

Turning to `COc1ccc(-c2c(C)c(Cl)cc(C(C)Nc3ncnc4[nH]cnc34)c2OC)cc1` (centres unmarked) [Example 101], the IC50 lay in the range of 0.1 to 0.25 µM.

Take `COc1ccc(-c2c(C)c(Cl)cc(C(C)Nc3ncnc4[nH]cnc34)c2OC)cc1C` (centres unmarked) [Example 102, N-[1-(5-chloro-2,4′-dimethoxy-3′,6-dimethylbiphenyl-3-yl)ethyl]-9H-purin-6-amine]: the IC50 fell in the range of 0.1 to 0.25 µM.

For the compound `COc1cccc(-c2c(C)c(Cl)cc(C(C)Nc3ncnc4[nH]cnc34)c2OC)c1` (centres unmarked) [Example 103], the IC50 is under 0.05 µM.

`COc1c(C(C)Nc2ncnc3[nH]cnc23)cc(Cl)c(C)c1-c1cccc(NC(C)=O)c1` (centres unmarked) [Example 104, N-{3′-chloro-6′-methoxy-2′-methyl-5′-[1-(9H-purin-6-ylamino)ethyl]biphenyl-3-yl}acetamide] gave an IC50 of under 0.05 µM.

Take `COc1c(C(C)Nc2ncnc3[nH]cnc23)cc(Cl)c(C)c1-c1ccc(F)c(F)c1` (centres unmarked) [Example 105, N-[1-(5-chloro-3′,4′-difluoro-2-methoxy-6-methylbiphenyl-3-yl)ethyl]-9H-purin-6-amine]: the 50% inhibitory concentration (IC50) was under 0.05 µM.

Turning to `COc1c(C(C)Nc2ncnc3[nH]cnc23)cc(Cl)c(C)c1-c1cncc(F)c1` (centres unmarked) [Example 108, N-{1-[5-Chloro-3-(5-fluoropyridin-3-yl)-2-methoxy-4-methylphenyl]ethyl}-9H-purin-6-amine], the IC50 is under 0.05 µM.
